Drawing on article PMC11783400, “Assessment of Potential Drug–Drug Interactions for Novel Oral Melanocortin‐1 Receptor Agonist Dersimelagon” (Pharmacology Research & Perspectives, 2025), this text covers IC50 and KI (inactivation) for one compound.

One data set deals with T1, UGT2B7 (Homo sapiens, UniProt P16662).
T1 construct: native enzyme in human liver microsomes
T1 sequence (P16662 24-529): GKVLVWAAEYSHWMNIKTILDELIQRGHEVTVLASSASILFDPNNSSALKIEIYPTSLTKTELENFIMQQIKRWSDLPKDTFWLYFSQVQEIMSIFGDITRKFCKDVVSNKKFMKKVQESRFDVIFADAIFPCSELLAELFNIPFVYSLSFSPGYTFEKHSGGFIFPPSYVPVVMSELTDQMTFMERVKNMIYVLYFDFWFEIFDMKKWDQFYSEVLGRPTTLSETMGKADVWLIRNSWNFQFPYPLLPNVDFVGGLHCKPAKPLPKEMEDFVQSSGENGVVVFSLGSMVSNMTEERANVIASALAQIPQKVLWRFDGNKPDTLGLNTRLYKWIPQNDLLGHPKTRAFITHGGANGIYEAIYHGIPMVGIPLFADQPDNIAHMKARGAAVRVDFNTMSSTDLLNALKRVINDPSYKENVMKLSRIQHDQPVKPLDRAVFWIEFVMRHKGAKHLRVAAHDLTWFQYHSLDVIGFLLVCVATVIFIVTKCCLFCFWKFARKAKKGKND
The data set is described as follows: glucuronidation inhibition in human liver microsomes. Conditions: substrate 3'-azido-3'-deoxythymidine; direct inhibition. It is filed as biochemical. The source says:
glucuronidation inhibition in human liver microsomes on UGT2B7
For orientation: Liver microsomes are vesicles of endoplasmic reticulum, rich in cytochrome P450 enzymes.

The next data set concerns the target T2, OAT3 (Homo sapiens, UniProt Q8TCC7).
T2 construct: gene SLC22A8; expressed in HEK293 cells
T2 sequence (Q8TCC7 1-542): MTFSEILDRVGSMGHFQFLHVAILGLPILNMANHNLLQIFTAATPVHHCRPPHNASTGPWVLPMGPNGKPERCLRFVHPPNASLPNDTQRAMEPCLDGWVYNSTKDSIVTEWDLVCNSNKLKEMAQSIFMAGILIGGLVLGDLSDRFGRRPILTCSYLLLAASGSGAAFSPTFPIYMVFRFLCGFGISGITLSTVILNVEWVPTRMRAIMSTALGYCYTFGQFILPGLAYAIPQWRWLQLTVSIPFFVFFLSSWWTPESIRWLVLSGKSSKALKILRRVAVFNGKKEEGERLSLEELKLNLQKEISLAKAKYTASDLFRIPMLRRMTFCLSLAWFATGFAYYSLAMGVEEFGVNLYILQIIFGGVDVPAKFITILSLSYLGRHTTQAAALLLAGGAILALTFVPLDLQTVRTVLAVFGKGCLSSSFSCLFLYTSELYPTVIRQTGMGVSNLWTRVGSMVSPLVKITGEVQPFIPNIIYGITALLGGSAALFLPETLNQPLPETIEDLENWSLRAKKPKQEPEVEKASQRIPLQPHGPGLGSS
Put plainly: uptake inhibition in HEK293 cells expressing the transporter. It is filed as cell-based. The source says:
uptake inhibition in HEK293 cells expressing the transporter on OAT3

For the next data set, the target named is T3, OATP1B1 (Homo sapiens, UniProt Q9Y6L6).
T3 construct: gene SLCO1B1; expressed in HEK293 cells
T3 sequence (Q9Y6L6 1-691): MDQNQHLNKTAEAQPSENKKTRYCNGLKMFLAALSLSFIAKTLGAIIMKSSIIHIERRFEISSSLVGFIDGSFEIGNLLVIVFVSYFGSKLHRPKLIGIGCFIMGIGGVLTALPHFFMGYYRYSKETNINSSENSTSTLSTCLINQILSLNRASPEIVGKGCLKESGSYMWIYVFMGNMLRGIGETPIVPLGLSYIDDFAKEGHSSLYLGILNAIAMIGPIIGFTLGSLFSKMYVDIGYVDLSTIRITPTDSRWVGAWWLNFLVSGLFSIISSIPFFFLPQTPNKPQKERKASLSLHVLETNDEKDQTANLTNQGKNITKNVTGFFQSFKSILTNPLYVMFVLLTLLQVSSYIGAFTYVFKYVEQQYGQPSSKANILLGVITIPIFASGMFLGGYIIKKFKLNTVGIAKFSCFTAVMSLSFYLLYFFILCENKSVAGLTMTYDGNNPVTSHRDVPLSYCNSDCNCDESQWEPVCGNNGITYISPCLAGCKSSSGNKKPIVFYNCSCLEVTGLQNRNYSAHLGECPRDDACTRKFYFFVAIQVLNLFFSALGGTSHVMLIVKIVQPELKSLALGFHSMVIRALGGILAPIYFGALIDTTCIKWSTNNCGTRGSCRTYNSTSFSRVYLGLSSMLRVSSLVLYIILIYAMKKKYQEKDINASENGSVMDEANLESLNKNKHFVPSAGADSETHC
The description is as above. It is filed as cell-based. The source says: uptake inhibition in HEK293 cells expressing the transporter on OATP1B1

For another data set, the target named is T4, CYP2C8 (Homo sapiens, UniProt P10632).
T4 construct: native enzyme in human liver microsomes
T4 sequence (P10632 1-490): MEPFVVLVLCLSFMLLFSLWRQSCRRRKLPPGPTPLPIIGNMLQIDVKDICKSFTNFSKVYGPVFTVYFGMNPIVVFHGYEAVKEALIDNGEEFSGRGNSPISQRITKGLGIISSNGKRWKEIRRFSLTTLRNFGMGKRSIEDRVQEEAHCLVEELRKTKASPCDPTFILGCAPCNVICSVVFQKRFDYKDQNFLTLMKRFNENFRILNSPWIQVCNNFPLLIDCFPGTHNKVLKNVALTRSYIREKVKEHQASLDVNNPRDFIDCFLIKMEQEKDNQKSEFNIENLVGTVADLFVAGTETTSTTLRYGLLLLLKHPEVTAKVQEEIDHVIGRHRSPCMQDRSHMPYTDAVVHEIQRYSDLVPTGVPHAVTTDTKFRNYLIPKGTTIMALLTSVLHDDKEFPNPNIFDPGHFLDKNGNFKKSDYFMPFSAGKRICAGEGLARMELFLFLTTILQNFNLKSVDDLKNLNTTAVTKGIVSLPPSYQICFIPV
The data set is described as follows: CYP activity inhibition in human liver microsomes. It is filed as biochemical. The conditions noted are these: read-out: IC50 (μM) / Direct inhibition. The source says:
CYP activity inhibition in human liver microsomes on CYP2C8

The target of another data set is T5, CYP3A4 (Table 1); CYP3A (Homo sapiens, UniProt P08684).
T5 construct: native enzyme in human liver microsomes
Put plainly: time-dependent inactivation in human liver microsomes. The format is biochemical. Conditions: read-out: Parameters / K I. The source says: time-dependent inactivation in human liver microsomes on CYP3A4 (Table 1); CYP3A (text)

For the next data set, the target named is T6, CYP2C19 (Homo sapiens, UniProt P33261).
T6 construct: native enzyme in human liver microsomes
Put plainly: CYP activity inhibition in human liver microsomes. The conditions noted are these: read-out: IC50 (μM) / Direct inhibition. The format is biochemical. The source says:
CYP activity inhibition in human liver microsomes on CYP2C19

Bounds are passed on as bounds.

T5 sequence (P08684 2-503): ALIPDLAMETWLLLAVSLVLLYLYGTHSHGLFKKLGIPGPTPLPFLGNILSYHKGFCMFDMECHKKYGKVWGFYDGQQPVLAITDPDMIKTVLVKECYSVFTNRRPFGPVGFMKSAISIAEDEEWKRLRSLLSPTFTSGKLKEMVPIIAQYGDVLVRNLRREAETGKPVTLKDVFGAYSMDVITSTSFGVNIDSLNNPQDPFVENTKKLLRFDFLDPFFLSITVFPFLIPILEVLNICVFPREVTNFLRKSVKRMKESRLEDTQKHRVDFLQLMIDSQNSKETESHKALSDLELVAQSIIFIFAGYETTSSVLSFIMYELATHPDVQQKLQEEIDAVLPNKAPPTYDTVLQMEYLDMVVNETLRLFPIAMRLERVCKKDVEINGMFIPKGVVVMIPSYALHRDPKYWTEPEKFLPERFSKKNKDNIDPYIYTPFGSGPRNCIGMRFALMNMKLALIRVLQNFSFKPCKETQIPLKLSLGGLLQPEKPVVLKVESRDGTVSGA
T6 sequence (P33261 whole entry): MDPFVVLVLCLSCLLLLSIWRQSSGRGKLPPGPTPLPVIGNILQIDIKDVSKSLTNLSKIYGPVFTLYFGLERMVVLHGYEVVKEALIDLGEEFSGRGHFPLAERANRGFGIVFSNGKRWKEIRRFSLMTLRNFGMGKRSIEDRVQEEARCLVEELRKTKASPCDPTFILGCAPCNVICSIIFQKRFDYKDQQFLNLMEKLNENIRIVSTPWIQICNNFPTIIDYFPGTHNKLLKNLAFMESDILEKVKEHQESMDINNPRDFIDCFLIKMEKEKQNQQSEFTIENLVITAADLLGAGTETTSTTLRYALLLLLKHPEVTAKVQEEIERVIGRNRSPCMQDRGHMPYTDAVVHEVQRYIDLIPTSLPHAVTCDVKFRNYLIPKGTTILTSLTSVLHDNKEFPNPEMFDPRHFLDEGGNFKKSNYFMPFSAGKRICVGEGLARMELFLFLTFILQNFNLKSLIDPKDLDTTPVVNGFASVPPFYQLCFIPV

Take `COC[C@H]1CN(C(=O)[C@]2(F)CN(C3CCCC3)C[C@H]2c2ccc(OC)cc2)C[C@@H]1c1ccc(C(F)(F)F)cc1N1CCC(C(=O)O)CC1` [dersimelagon]: the IC50 is above 50 µM against UGT2B7; 0.227 µM against OAT3; 0.158 µM against OATP1B1; 24.2 µM at CYP2C8; 23.4 µM at CYP2C19. At CYP3A4 (Table 1); CYP3A, the KI (inactivation) amounted to 64.1 µM.
